# Results: PubChem BioAssay AID179 (DTP/NCI, 2004)
# Where “and” joins values, the source holds several entries; their conditions need not be identical. Equal values may be shown once. Calls of active or inactive are those of the source.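 How the source made its calls: active means compounds giving half or more protection of infected cells from virus-caused growth loss, again on retest; inactive means the rest.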 Where a SMILES comes first, the peptide text is derived from it. The star is where a group is joined. Fmoc = O=C(OCC1c2ccccc2-c2ccccc21)*; Boc = CC(C)(C)OC(=O)*; OtBu = CC(C)(C)O*
# Test system: CEM cells HIV-1 protection, formazan growth assay
# Assay: NCI AIDS Antiviral Assay
# Conditions: for IC50: measured here: growth of uninfected CEM cells
# Method in brief: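 Soluble formazan readout of cell growth; CEM cells ± HIV-1; 5 drug concs. ≥50% protection → retest; ≥50% again = moderately active; reproducible 100% = confirmed active.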
Structure (SMILES),EC50 [µM],IC50,outcome
Cn1ccc(C(=O)NCCN(CCNC(=O)c2ccn(C)c(=O)c2O)CCNC(=O)c2cccc(=O)n2O)c(O)c1=O,> 200,> 200 µM,–
O=C1CC(CC(O)C(O)CO)CC(=O)N1 (stereo not given),> 200,> 200 µM,–
CC1(C)N=C(C(N)=O)c2ncn(N)c2N1,> 200,> 200 µM,–
COc1cc2c(c(OC)c1OC)-c1ccc(NCCCNc3ccc4c(cc3=O)C(NC(C)=O)CCc3cc(OC)c(OC)c(OC)c3-4)c(=O)cc1C(NC(C)=O)CC2 (stereo not given),–,–,inactive
CNc1ccc(N)cc1C(=O)N1CCC[C@H]1CO,> 200,> 200 µM,–
Cc1cn(C2CCC(COP(=O)(OCC(=O)C(C)(C)C)OCC(=O)C(C)(C)C)O2)c(=O)[nH]c1=O (stereo not given),30.9,> 200 µM,–
CC1(/C=C/CCSc2ccccc2)CC(=O)C2CC1C2(C)C (stereo not given),> 200,7.94 µM,–
Cn1c(=O)c2c(nc(C[N+]3([O-])CCOCC3)n2C)n(C)c1=O,> 83.2,> 83.2 µM,–
CC(C)CCC[C@@H](C)C1CCC2[C@@H]3CCC4C[C@@H](CC/C=C/CC[C@H]5CC[C@@]6(C)C(CC[C@@H]7C6CC[C@@]6(C)C7CCC6[C@H](C)CCCC(C)C)C5)CC[C@]4(C)C3CC[C@@]21C (stereo not given in full),> 9.55,> 9.55 µM,–
Cc1cc2c(cc1O)CC[C@@H]1[C@@H]2CC[C@]2(C)[C@@H](O)CC[C@@H]12,> 200,4.07 µM,–
CC(C)(C)OC(=O)CCC(NC(=O)OCC1c2ccccc2-c2ccccc21)C(=O)NC(Cc1c[nH]c2ccccc12)C(=O)NC(CCCCNC(=O)OC(C)(C)C)C(=O)N1CCCC1C(=O)NCC(N)=O (stereo not given) (Fmoc-E(OtBu)WK(Boc)PG-NH2; configuration not given here),> 100,> 100 µM and 44.7 µM,–
COc1ccc2nc3cc(Cl)ccc3c(Nc3ccccc3-c3ccccc3Nc3c4ccc(Cl)cc4nc4ccc(OC)cc34)c2c1,> 4.07,> 4.07 µM,–
CN(C)c1ccc(/C=C(\C#N)c2ccc(Br)cc2Br)cc1,> 200,3.39 µM,–
CCCNC(=S)N/N=C/c1cccc(C)n1,> 200,11 µM,–
CCC(C)C(=O)O[C@H]1[C@H](OC(C)=O)[C@H](OC(C)=O)[C@@]2(COC(C)=O)C(OC(C)=O)C(=O)[C@@H]3[C@@H](OC(C)=O)[C@]2(O[C@@]3(C)COC(=O)c2ccccc2)[C@@]1(C)O (stereo not given in full),–,–,inactive
Nc1ncnc2c1ncn2C1OC(CO)C(O)C1O (stereo not given),–,–,inactive
COc1ccc(/C=C2/N=C(N/N=C\C(O)C(O)C(O)C(O)CO)NC2=O)cc1 (stereo not given),–,77.6 µM and 112 µM,–
O=C(O)CCCCCCC[C@H]1S[C@H]1CCCCCCO,–,–,inactive
COC(=O)c1ccc(OCc2ccc3nc(OC)c(OC)nc3c2)cc1,> 4.07,> 4.07 µM,–
Clc1cc2nncc(N3CC3)c2cc1Cl,–,–,inactive
O=c1ccn(CC2COC(CP(=O)(O)O)O2)c(=O)[nH]1 (stereo not given),> 200,> 200 µM,–

Structure (SMILES),EC50 [µM],IC50,outcome
COC(CNC(=O)C(C)NC(=O)C(C)NC(=O)c1ccccc1)OC (stereo not given),–,–,inactive
Cc1cccc(C)c1NC(=O)CCC(=O)NC(N)=S,> 339,> 339 µM,–
CN(C)/N=C1/CCC(C(F)(F)F)(C(F)(F)F)O1,> 200,6.76 µM,–
O=c1oc2c(-c3ccccc3)cccc2c(O)c1-c1ccccc1,> 200,85.1 µM,–
CC(C)C(NC(=O)OC(C)(C)C)C(=O)N1CCCC1C(=O)O (stereo not drawn) (Boc-Val-Pro-OH; configuration not given here),> 200,> 200 µM,–
C/C(=N\OC(=O)Nc1ccccc1)c1ccccc1,> 200,132 µM,–
FC(F)(F)c1ccc2c3c(c4c(c2n1)OCN(Cc1ccc(Cl)cc1Cl)C4)CN(Cc1ccc(Cl)cc1Cl)CO3,0.282,4.37 µM,–
CN1C/C(=C\c2cccs2)C2=NN(c3ccccc3)C(c3cccs3)C2C1 (stereo not given),> 200,10.7 µM,–
CS(=O)(=O)OCCC(=O)N1CCN(C(=O)CCOS(C)(=O)=O)CC1,> 200,35.5 µM,–
CC(C)N(CN1C(=O)N/C(=C/c2cccc(/C=C3/NC(=O)N(CN(C(C)C)C(C)C)C3=O)c2)C1=O)C(C)C,> 501,75.9 µM,–
O=S(=O)(O)c1cc(N=Nc2cc(S(=O)(=O)O)c3cccnc3c2O)ccc1C(O)C(O)c1ccc(N=Nc2cc(S(=O)(=O)O)c3cccnc3c2O)cc1S(=O)(=O)O (stereo not given),11.2,> 200 µM,–
Cc1ccc(SSc2ccc(C(C)(C)C)cc2)cc1,> 200,4.27 µM,–
C/C(=N/NC(=S)N1CCCCCC1)c1cccc(/C(C)=N\NC(=S)N2CCCCCC2)n1,> 200,3.63 µM,–
COc1ccc(CN2CCCN(Cc3ccc(OC)cc3)S2)cc1,> 75.9,31.6 µM,–
COC(=O)[C@@H]1[C@@H]2NC(=S)N[C@@]1(C)Oc1ccccc12,–,–,inactive
N#CCCC(CCC#N)(CCC#N)NO,> 200,> 200 µM,–
COc1ccccc1/C=C\C#N,> 85.1,> 85.1 µM,–
CNC1C(O)CC(OC2C/C=C(\C)C/C(C)=C/C=C/CCC(C)CNC(=O)/C=C/C=C/C2C)OC1C (stereo not given),> 37.2,1.95 µM,–
CCOP1(OCC)(SSC)OC(=O)C(C)S1 (stereo not given),> 813,617 µM,–
CC(/C=C/c1ncccc1OCCCCCC(=O)O)=N\NC1=NCCN1,> 69.2,> 69.2 µM,–
CNC(=O)[C@@H](C)C1C(=O)/C(=C(O)\C=C\C(C)C)C(=O)N1C1CCC(O)C(C)O1 (stereo not given in full),–,–,inactive

Structure (SMILES),EC50 [µM],IC50,outcome
COc1cc2c(cc1O)C1(Cc3ccc4c(c3C1=O)OCO4)N(C)CC2 (stereo not given),> 200,> 200 µM,–
CC1=C2c3ccccc3N(S(=O)(=O)c3ccccc3)[C@H]2[C@H](C(=O)N2C3CC4CC[C@@]3(CS2(=O)=O)C4(C)C)CC1 (stereo not given in full),5.25,18.6 µM,–
C/C=C/C#CC#CC(O)C(/C=C/CCCO)OC1OC(CO)C(O)C(O)C1O (stereo not given),> 158,> 158 µM,–
COc1c(C(=O)/C(=N/Nc2ccccc2)C(C)=O)c(O)c(OC)c2occc12,> 200,38 µM,–
C1CC2=C(C1)[Se]C(=C1Sc3nsnc3S1)[Se]2,> 200,195 µM,–
Cc1cccc(C2=NC(c3ccccc3)C(c3ccccc3)N=C2c2cccc(C)n2)n1 (stereo not given),> 16.2,> 16.2 µM,–
CCOC(=O)/C(C#N)=C/c1ccccc1[N+](=O)[O-],> 275,46.8 µM,–
N/N=C(/CS(=O)(=O)c1ccc(Cl)cc1)c1ccccc1,> 100,> 100 µM,–
Clc1ccc2c(SCC3CO3)c3ccccc3nc2c1 (stereo not given),> 200,2.57 µM,–
COc1ccc(N2N=NN(C(C)C)/C2=C(/Cl)c2nnnn2-c2ccc(OC)cc2)cc1,> 200,9.33 µM,–
Cc1ccccc1-n1c(=O)nc2n(-c3ccc(C(C)(C)C)cc3)c3ccccc3cc-2c1=O,> 200,14.1 µM,–
O=C(O)CN(CCN(CC(=O)O)CC(=O)O)CC(=O)O.[Ni+2],> 200,> 200 µM,–
Cc1ccc(C)c(NC(=O)C(=O)CC(=O)C2CCOC2=O)c1 (stereo not given),–,–,inactive
OC(CN(CCCl)CCCl)C(O)C(O)C(O)CN(CCCl)CCCl (stereo not given),–,–,inactive
COc1ccc(/C=C/C(=O)C(C)(C)C)cc1OC,> 200,39.8 µM,–
CC1(C)CC(=O)CC(=Nc2ccc([N+](=O)[O-])cc2)C1,> 52.5,> 52.5 µM,–
COc1ccc2ccc3c(c2c1)CN1CCc2cc(OC)c(OC)cc2C1C3 (stereo not given),–,–,inactive
Nc1nc(-c2ccccc2)cc(-c2ccc(F)cc2)c1-c1ccc(Cl)cc1,> 200,132 µM,–
C=C(C)C12CC3/C(=N\O)C(C1)C(C)C(/C3=N\O)[C@@]2(C)O (stereo not given in full),> 200,> 200 µM,–
Nc1ncc(C[P+](c2ccccc2)(c2ccccc2)c2ccccc2)c(N)n1,> 200,> 200 µM,–
CCOc1ccc(NC(=O)/C(=N\N)C(C(=O)OC)c2nc3ccc(Cl)cc3[nH]c2=O)cc1 (stereo not given),> 38.9,> 38.9 µM,–

Structure (SMILES),EC50 [µM],IC50,outcome
O=C(O)C1CCC(c2ccc(F)cc2F)N1 (stereo not given),> 200,> 200 µM,–
Nc1nc(=S)[nH]c(C(=O)Nc2nccs2)c1-c1ccccc1,> 21.9,> 21.9 µM,–
O=Nc1c(O)c(S(=O)(=O)O)cc2cc(S(=O)(=O)O)ccc12,> 200,33.1 µM,–
CCOC(=O)c1c(SCCN2CCCCC2)n(-c2ccccc2)c(=S)n(-c2ccccc2)c1=O,> 20,> 20 µM,–
C#Cc1cc(CN(CC(=O)OC(C)(C)C)CC(=O)OC(C)(C)C)nc(CN(CC(=O)OC(C)(C)C)CC(=O)OC(C)(C)C)c1,> 11.5,0.204 µM,–
OC12C=CC(CCCC1)O2 (stereo not given),> 200,12.3 µM,–
COc1ccc2c(c1)OC[C@@H]1c3cc(NS(=O)(=O)c4ccccc4)cc(OC)c3O[C@H]21,> 200,18.2 µM,–
C=C1OC(OC)CC(N)C1O (stereo not given),–,–,inactive
CCOC(=O)c1ccc(C(O)CC(=O)OC(C)(C)C)[nH]1 (stereo not given),> 200,38 µM,–
C=C1CC(Cn2ccc(=O)[nH]c2=O)(c2ccc(OC)cc2)OC1=O (stereo not given),> 200,2.75 µM,–
CCCCCCCCCCCCOC1C(COCCN2CCCC2)OC2OC(C)(C)OC21 (stereo not given),> 200,3.02 µM,–
O=C(O)CCNS(=O)(=O)c1ccc(NC(=O)c2ccccc2)cc1,–,–,inactive
O=C1C2C=CC1C1C3OC3C(=O)C21 (stereo not given),> 708,> 708 µM,–
O=C1OC(c2ccccc2)=N/C1=C\c1cc(Cl)ccc1Cl,> 6.31,> 6.31 µM,–
CCc1cc(-c2ccc(OC)cc2)c(C#N)c(=S)n1C1OC(CO)C(O)C(O)C1O (stereo not given),> 200,126 µM,–
COCn1cnc2c(=O)n(-c3ccc(OC)cc3)c(=S)n(-c3ccc(OC)cc3)c21,> 200,> 200 µM,–
Cn1c2ccccc2c(=O)c2c(O)cc3c(c21)C=CC1(CCCCC1)O3,> 200,> 200 µM,–
Cc1ccc2ccc3c(-c4ccccc4)cc(C)nc3c2n1,> 20,3.31 µM,–
N#Cc1sc2c(c1OC(=O)c1ccccc1)c(=O)n(-c1ccccc1)c(=S)n2-c1ccccc1,> 200,2.34 µM,–
